Patent US20230072421A1, “TARGETED RADIOPHARMACEUTICALS FOR THE DIAGNOSIS AND TREATMENT OF PROSTATE CANCER” (Bayer AS, priority 2019, published 2023)

What was measured:
VCaP cells = experiment: Cell proliferation assay (CellTiter-Glo, 5-day exposure), VCaP; assay type: cell-based; details: 4000 cells/well, Th-227 labelled at 375 kBq/nmol, mean of 1 to 6 experiments
Method in brief: (§1)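 Cells were plated (4000/well VCaP, 1000/well for the other lines), left overnight at 37 °C with 5% CO2, then exposed for 5 days to Thorium-227-labelled PSMA ligands. Viability before and after exposure was measured by CellTiter-Glo.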

C4-2 cells = experiment: Cell proliferation assay (CellTiter-Glo, 5-day exposure), C4-2; assay type: cell-based; details: C4-2, 1000 cells/well, Th-227 labelled at 375 kBq/nmol, mean of 1 to 6 experiments
Method in brief: as §1

LNCaP cells = experiment: Cell proliferation assay (CellTiter-Glo, 5-day exposure), LNCaP; assay type: cell-based, human; details: LNCaP, 1000 cells/well; Th-227 labelled at 375 kBq/nmol; 5-day exposure; mean of 1 to 6 experiments
Description: Inhibition of cell proliferation of Thorium-227 labeled PMSA SMOL ligands was tested different prostate cancer cell lines, namely 22Rv1, VCaP, C4-2 (all from ATCC, Manassas, Va., USA) and LNCaP (DMSZ, Braunschweig). Cells were seeded using the following conditions in 384 well plates (Corning) in 30 μl of growth media at 4000 cells/well for VCaP cells and 1000 cells/well for 22Rv1, C4-2 and LNCaP cells.
Cells were cultivated an incubator at 37° C. and 5% C02 over night. On the following days cells were treated in triplicates with serial dilutions of PSMA-SMOLs labeled with Th-227 at a specific activity of 375 kBq/nmol (RCP>70% as assessed by iTLC analysis; compounds where RCP was between 50-70% in individual experiments are marked with an * in the table) using a D300e Digital Dispenser (Tecan). In sister plates cell viability at treatment start (d=0) was determined using CellTiter-Glo® assay (CTG, Promega, Madison, Wis., USA), by adding 30 μl per well CTG solution, incubation for 10 min and reading of Luminescence in a PheraStarFSX instrument (BMG Labtech). After a 5-day exposure in the presenced of test compounds, cell viability of treated or untreated control cells was determined again using CellTiter-Glo® assay (Promega, Madison, Wis., USA). […] The DRC software is a Biobook Spreadsheet that was developed by Bayer AG and Bayer Business Services on the IDBS E-Workbook Suite platform (IDBS: ID Business Solutions Ltd., Guildford, UK).

22Rv1 cells = experiment: Cell proliferation assay (CellTiter-Glo, 5-day exposure), 22Rv1; assay type: cell-based; details: 22Rv1, 1000 cells/well, Th-227 labelled at 375 kBq/nmol, mean of 1 to 6 experiments
Method in brief: as §1

[1] = system: LNCaP human prostate cancer cells; experiment: LNCaP xenograft efficacy study (T/C tumor area); assay type: in vivo, SCID mice; details: Example I
Method in brief: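 SCID mice with testosterone pellet bearing s.c. flank LNCaP xenografts (5×10^6 cells in Matrigel) were treated i.v. with a defined radioactive dose once tumors reached 35-50 mm^2 (n=10/group). Tumor area (caliper, longest diameter × perpendicular) measured 2-3× weekly; T/C ratio calculated from tumor areas when vehicle group closed.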

[2] = Biodistribution study in LNCaP tumor-bearing mice (Th227 counted in organs); assay type: in vivo, SCID mice; details: 500 kBq/kg; for Th-227 in Blood / Th-227 in Femur and tibia / Th-227 in Kidneys / Th-227 in Liver / Th-227 in Salivary gland / Th-227 in Spleen / Th-227 in Tumor / Th-227 in prostate: study b2999
Description: SCID mice were randomly assigned to experimental groups, ten animals per group (efficacy) or n=3-5 per time point of biodistribution study. At the initiation of the study, a testosterone pellet was subcutaneously transplanted, the animals were shaved, tattooed and each cage was labeled with the cage number, study number and number of animals per cage.
LNCaP human prostate cancer cells were cultured as described according to the supplier's protocols. Cells were harvested for transplantation in a subconfluent (70%) state. Animals were injected with 5×10^6 LNCaP cells suspended in 100% Matrigel subcutaneously into the flank of the mice.
Biodistribution study: When tumors reached a predetermined size in mice of ˜50 mm^2 animals were randomized into groups (n=3 animals/time point) and the radioactive compound was once applied intravenously. The i.v. application volume was 100 μl/mice.
At the predetermined time point, n=3 animals were sacrificed, the organs removed, weight and measured in a Germanium detector to count the Th227 in the sample.

In the case of `O=C(O)CC[C@H](NC(=O)N[C@@H](CCCCNC(=O)[C@@H](Cc1ccc2ccncc2c1)NC(=O)[C@H]1CC[C@H](CNC(=O)C[N+]23CCN4CCN5CC[N+]6(CC2)CC(=O)[O][227Th-2]36([O]C(=O)C4)[O]C(=O)C5)CC1)C(=O)O)C(=O)O` [Example 42-B-227Th, (3R,10S,14S)-3-[(isoquinolin-7-yl)methyl]-1,4,12-trioxo-1-{(1r,4S)-4-[(2-{4,7,10-tris[(carboxy-kappaO)methyl]-1,4,7,10-tetraazacyclododecan-1-yl-kappa^2N^1,N^4}acetamido)methyl]cyclohexyl}-2,5,11,13-tetraazahexadecane-10,14,16-tricarboxylato(3−)(^227Th)Thorium], the “Proliferation assay on cancer cell lines by TTCs Default Pivot #3 IC50 [kBq/mL] VCap 4000cells 375kBq/nmol (mean)” value (VCaP cells) is reported as 0.70 kBq/mL, the “Proliferation assay on cancer cell lines by TTCs Default Pivot #3 IC50 [kBq/mL] C4-2 1000cells 375kBq/nmol (mean)” value (C4-2 cells) is reported as 0.72 kBq/mL and the “Proliferation assay on cancer cell lines by TTCs Default Pivot #3 IC50 [kBq/mL] LnCap 1000cells 375kBq/nmol (mean)” value (LNCaP cells) is reported as 0.10 kBq/mL.

In the case of `COc1c(C[C@@H](NC(=O)c2ccc(CNC(=O)CN3CCN(CC(=O)[O-])CCN(CC(=O)[O-])CCN(CC(=O)[O-])CC3)cn2)C(=O)NCCCC[C@H](NC(=O)N[C@@H](CCC(=O)O)C(=O)O)C(=O)O)ccc2ccccc12.[227Th+4]` [Example 33a-B-227Th, (3R,10S,14S)-3-[(1-methoxynaphthalen-2-yl)methyl]-1,4,12-trioxo-1-{5-[(2-{4,7,10-tris[(carboxy-kappaO)methyl]-1,4,7,10-tetraazacyclododecan-1-yl-kappa^2N^1,N^4}acetamido)methyl]pyridin-2-yl}-2,5,11,13-tetraazahexadecane-10,14,16-tricarboxylato(3−)(^227Th)Thorium], the “Proliferation assay on cancer cell lines by TTCs Default Pivot #3 IC50 [kBq/mL] VCap 4000cells 375kBq/nmol (mean)” value (VCaP cells) is reported as 1.22 kBq/mL, the “Proliferation assay on cancer cell lines by TTCs Default Pivot #3 IC50 [kBq/mL] C4-2 1000cells 375kBq/nmol (mean)” value (C4-2 cells) is reported as 4.63 kBq/mL and the “Proliferation assay on cancer cell lines by TTCs Default Pivot #3 IC50 [kBq/mL] LnCap 1000cells 375kBq/nmol (mean)” value (LNCaP cells) is reported as 0.20 kBq/mL.

In the case of `O=C(O)CCC(NC(=O)NC(CCCCNC(=O)C(Cc1ccc2ccccc2c1)NC(=O)C1CCC(CNC(=S)Nc2ccc(CC(CN(CCNC(=O)c3ccn(CCO)c(=O)c3[O-])CCNC(=O)c3ccn(CCO)c(=O)c3[O-])CN(CCNC(=O)c3ccn(CCO)c(=O)c3[O-])CCNC(=O)c3ccn(CCO)c(=O)c3[O-])cc2)CC1)C(=O)O)C(=O)O.[227Th+4]` (centres unmarked) [Example 1-F-227Th], the “Proliferation assay on cancer cell lines by TTCs Default Pivot #3 IC50 [kBq/mL] VCap 4000cells 375kBq/nmol (mean)” value (VCaP cells) is reported as 3.07 kBq/mL, the “Proliferation assay on cancer cell lines by TTCs Default Pivot #3 IC50 [kBq/mL] C4-2 1000cells 375kBq/nmol (mean)” value (C4-2 cells) is reported as 2.14 kBq/mL and the “Proliferation assay on cancer cell lines by TTCs Default Pivot #3 IC50 [kBq/mL] 22Rv1 1000cells 375kBq/nmol (mean)” value (22Rv1 cells) is reported as 1.06 kBq/mL. The T/Carea ([1]; day 27, 2 x 400 + 2 x 750 kBq/kg weekly) was 1.03, the T/Carea ([1]; day 37, 2 x 400 + 3 x 750 kBq/kg) was 0.82 and the “Background in blood, liver and spleen (in words)” value ([2]; comparison of % injected dose per gram tissue) was “highest background”. For the same compound, the “Th-227 in Blood” value ([2]; 0.25 h) was 4.80 % ID Th-227/g organ, the “Th-227 in Femur and tibia” value ([2]; 0.25 h) was 1.46 % ID Th-227/g organ and the “Th-227 in Kidneys” value ([2]; 0.25 h) was 51.79 % ID Th-227/g organ. For the same compound, the “Th-227 in Liver” value ([2]; 0.25 h) was 2.63 % ID Th-227/g organ, the “Th-227 in Salivary gland” value ([2]; 0.25 h) was 0.31 % ID Th-227/g organ and the “Th-227 in Spleen” value ([2]; 0.25 h) was 2.35 % ID Th-227/g organ. For the same compound, the “Th-227 in Tumor” value ([2]; 0.25 h) was 9.36 % ID Th-227/g organ, the “Th-227 in prostate” value ([2]; 0.25 h) was 3.62 % ID Th-227/g organ and the “Th-227 in Blood” value ([2]; 1 hr) was 2.28 % ID Th-227/g organ. The “Th-227 in Femur and tibia” value ([2]; 1 hr) was 1.68 % ID Th-227/g organ, the “Th-227 in Kidneys” value ([2]; 1 hr) was 58.96 % ID Th-227/g organ and the “Th-227 in Liver” value ([2]; 1 hr) was 2.41 % ID Th-227/g organ. The “Th-227 in Salivary gland” value ([2]; 1 hr) was 2.68 % ID Th-227/g organ, the “Th-227 in Spleen” value ([2]; 1 hr) was 1.86 % ID Th-227/g organ and the “Th-227 in Tumor” value ([2]; 1 hr) was 10.58 % ID Th-227/g organ. For the same compound, the “Th-227 in prostate” value ([2]; 1 hr) was 4.83 % ID Th-227/g organ, the “Th-227 in Blood” value ([2]; 6 hr) was 0.35 % ID Th-227/g organ and the “Th-227 in Femur and tibia” value ([2]; 6 hr) was 1.30 % ID Th-227/g organ. For the same compound, the “Th-227 in Kidneys” value ([2]; 6 hr) was 67.34 % ID Th-227/g organ, the “Th-227 in Liver” value ([2]; 6 hr) was 2.19 % ID Th-227/g organ and the “Th-227 in Salivary gland” value ([2]; 6 hr) was 1.48 % ID Th-227/g organ. For the same compound, the “Th-227 in Spleen” value ([2]; 6 hr) was 1.51 % ID Th-227/g organ, the “Th-227 in Tumor” value ([2]; 6 hr) was 13.03 % ID Th-227/g organ and the “Th-227 in prostate” value ([2]; 6 hr) was 1.97 % ID Th-227/g organ. For the same compound, the “Th-227 in Blood” value ([2]; 24 h) was 0.06 % ID Th-227/g organ, the “Th-227 in Femur and tibia” value ([2]; 24 h) was 0.88 % ID Th-227/g organ and the “Th-227 in Kidneys” value ([2]; 24 h) was 34.39 % ID Th-227/g organ. The “Th-227 in Liver” value ([2]; 24 h) was 2.49 % ID Th-227/g organ, the “Th-227 in Salivary gland” value ([2]; 24 h) was 0.75 % ID Th-227/g organ and the “Th-227 in Spleen” value ([2]; 24 h) was 0.94 % ID Th-227/g organ. For the same compound, the “Th-227 in Tumor” value ([2]; 24 h) was 6.05 % ID Th-227/g organ, the “Th-227 in prostate” value ([2]; 24 h) was 0.34 % ID Th-227/g organ and the “Th-227 in Blood” value ([2]; 72 h) was 0.02 % ID Th-227/g organ. For the same compound, the “Th-227 in Femur and tibia” value ([2]; 72 h) was 0.79 % ID Th-227/g organ, the “Th-227 in Kidneys” value ([2]; 72 h) was 12.99 % ID Th-227/g organ and the “Th-227 in Liver” value ([2]; 72 h) was 1.96 % ID Th-227/g organ. For the same compound, the “Th-227 in Salivary gland” value ([2]; 72 h) was 0.73 % ID Th-227/g organ, the “Th-227 in Spleen” value ([2]; 72 h) was 1.14 % ID Th-227/g organ and the “Th-227 in Tumor” value ([2]; 72 h) was 3.40 % ID Th-227/g organ. The “Th-227 in prostate” value ([2]; 72 h) was 0.68 % ID Th-227/g organ, the “Th-227 in Blood” value ([2]; 168 h) was 0.00 % ID Th-227/g organ and the “Th-227 in Femur and tibia” value ([2]; 168 h) was 1.07 % ID Th-227/g organ. For the same compound, the “Th-227 in Kidneys” value ([2]; 168 h) was 6.79 % ID Th-227/g organ, the “Th-227 in Liver” value ([2]; 168 h) was 2.14 % ID Th-227/g organ and the “Th-227 in Salivary gland” value ([2]; 168 h) was 0.74 % ID Th-227/g organ. The “Th-227 in Spleen” value ([2]; 168 h) was 1.34 % ID Th-227/g organ, the “Th-227 in Tumor” value ([2]; 168 h) was 1.13 % ID Th-227/g organ and the “Th-227 in prostate” value ([2]; 168 h) was 0.13 % ID Th-227/g organ. The “Th-227 in Blood” value ([2]; 336 h) was 0.00 % ID Th-227/g organ, the “Th-227 in Femur and tibia” value ([2]; 336 h) was 1.18 % ID Th-227/g organ and the “Th-227 in Kidneys” value ([2]; 336 h) was 2.29 % ID Th-227/g organ. The “Th-227 in Liver” value ([2]; 336 h) was 1.69 % ID Th-227/g organ, the “Th-227 in Salivary gland” value ([2]; 336 h) was 0.42 % ID Th-227/g organ and the “Th-227 in Spleen” value ([2]; 336 h) was 1.41 % ID Th-227/g organ. For the same compound, the “Th-227 in Tumor” value ([2]; 336 h) was 0.74 % ID Th-227/g organ and the “Th-227 in prostate” value ([2]; 336 h) was 0.22 % ID Th-227/g organ.
